Experimental data as given in patent publication US10450549B2, “Aryloxyphenoxypropionate tolerance in turfrgass species and use of AAD1 as a selectable marker” (Dow AgroSciences, LLC, priority 2004, dated 2019).

What was measured:
Assay type in all cases: in vivo, Arabidopsis thaliana
[1] = tested on: Wildtype Arabidopsis; test: T1 Arabidopsis spray test, % visual injury 2 WAT: wildtype control
Text: (§1) Random individual T1 plants selected for glufosinate resistance above were confirmed for expression of the PAT protein using a PAT ELISA kit (Part no. 7000045, Strategic Diagnostics, Inc., Newark, Del.) to non-destructively confirm fidelity of selection process (manufacturer's protocol). Plants were then randomly assigned to various rates of phenoxy herbicides (dichlorprop or 2,4-D). […] Elevated rates were applied in subsequent trials (50, 200, 800, or 3200 g ae/ha).
(§2) All auxin herbicide applications were made using the DeVilbiss sprayer as described above to apply 703 L/ha spray volume (0.4 ml solution/3-inch pot) or applied by track sprayer in a 187 L/ha spray volume. […] Dichlorprop used was technical grade (Sigma, St. Louis, Mo.) dissolved in DMSO and diluted in water (<1% DMSO final concentration). As herbicide rates increased beyond 800 g ae/ha, the pH of the spray solution became exceedingly acidic, burning the leaves of young, tender Arabidopsis plants and complicating evaluation of the primary effects of the herbicides. It became standard practice to apply these high rates of phenoxy herbicides in 200 mM Tris buffer (pH 9.0) to a final pH of ˜7-8.
(§3) Although Arabidopsis, being a dicot, is not an optimal system for testing ACCase-inhibiting AOPP grass herbicides, AAD1 (v3)-transformed T1 plants were subjected to elevated rates (400-1600 g ae/ha) of RS-haloxyfop acid (internally synthesized) that do cause growth abnormalities and death of wildtype Arabidopsis using the DeVilbiss sprayer as described above. Injury ratings were taken 7 and 14 days after treatment. Likewise, T1 individuals were treated with the pyridyloxyacetate auxin herbicide, fluroxypyr.
(§4) Table 16. […] Response is presented in terms of % visual injury 2 WAT. […] Since each T1 is an independent transformation event, one can expect significant variation of individual T1 responses within a given rate. An arithmetic mean and standard deviation is presented for each treatment. The range in individual response is also indicated in the last column for each rate and transformation. PAT/Cry1F-transformed Arabidopsis served as an auxin-sensitive transformed control. Wildtype Arabidopsis is untransformed.
(§5) Table 17. T1 Arabidopsis response to a range of dichlroprop rates applied postemergence. Response is presented in terms of % visual injury 2 WAT. […] Since each T1 is an independent transformation event, one can expect significant variation of individual T1 responses within a given rate. An arithmetic mean and standard deviation is presented for each treatment. The range in individual response is also indicated in the last column for each rate and transformation. PAT/Cry1F-transformed Arabidopsis served as an auxin-sensitive transformed control. Wildtype Arabidopsis is untransformed.
as §5, with “18.” for “17.”, “haloxyfop” for “dichlroprop”, “postemergence at artificially high rates attempting to show tolerance of the dicot Arabidopsis to the graminicide.” for “postemergence.”

[2] = tested on: PAT/Cry1F-transformed Arabidopsis; test: T1 Arabidopsis spray test, % visual injury 2 WAT: PAT/Cry1F transformed control
Text: as §1, §2, §3, §4, §5
as §5, with “18.” for “17.”, “haloxyfop” for “dichlroprop”, “postemergence at artificially high rates attempting to show tolerance of the dicot Arabidopsis to the graminicide.” for “postemergence.”

[3] = tested on: wt ARBTH; test: In vitro plate test of herbicide cross resistance: wild-type Arabidopsis; details: 7 days
Description: The ability of AAD1 (v3) to provide resistance to other aryloxyphenoxyalkanoate herbicides in transgenic Arabidopsis was determined using a modified in vitro plate assay. Seeds from wild-type Arabidopsis thaliana as well as Arabidopsis thaliana containing the plant optimized AAD1 (v3) gene (T4 homozygous plants id=PAAD1.315.064) were sterilized by agitating for 10 min in a 50% bleach solution. These seeds were then rinsed four times with sterile water to remove the bleach.
Dose response assays utilized a nutrient media (see below) supplemented with various rates of test compounds. The test compounds were added to the heated media (55° C.) as concentrated solutions in DMSO. Control wells had the appropriate amount of DMSO without any additional compound. The final concentration of DMSO never exceeded 1% (v/v). After thorough mixing, a 6 mL aliquot of the warm media containing the appropriate concentration of compound was added to each well of a 6-well, flat bottom, polystyrene tissue culture tray (Falcon 353046, Becton Dickson and Company, Franklin Lakes, N.J.). After the media solidified, approximately 20 to 30 Arabidopsis seeds were applied on top of the solidified media and the remaining 2 mL of media was poured over the seeds. The plates were lightly agitated to disperse the seeds, covered and allowed to cool until the media had completely solidified. The plates were incubated for 7 days at 25° C. under continual fluorescent lighting (75 μE m^−2 s^−1). Nutrient Media Composition was as described in Example 2.2 and in Somerville and Orgen (1982).
Assessment of Growth Reduction. The apical portion of the Arabidopsis plants grown in the treated media was assessed visually relative to the apical portion of the plants grown in the media containing only DMSO. Values were recorded as % growth reduction. Assessments of root growth inhibition of the Arabidopsis plants grown in the treated media were achieved by carefully extracting the plants from the media and measuring the length of the root. These root lengths were then compared to the root length of the control plants to determine a % growth reduction. A minimum of five plants were assessed for each treatment. The values recorded are an average of all the plants assessed. The calculated concentration to reach 50% inhibition effect (I50) were determined for both root and shoots of wildtype and AAD1-transformed Arabidopsis. The ratios of resistant to sensitive biotypes are included in Table 19. A ratio>2 for both root and shoot measurements generally signifies significant resistance. The higher the ratio, the greater the level of resistance. […] The broad phenoxy auxin resistance is the first reported in planta.

[4] = number of individuals; 100 g ae/ha; Wildtype; 2 WAT
[5] = number of individuals; 200 g ae/ha; Wildtype; 2 WAT
[6] = number of individuals; 400 g ae/ha; Wildtype; 2 WAT
[7] = number of individuals; 800 g ae/ha; Wildtype; 2 WAT
[8] = number of individuals; 1600 g ae/ha; Wildtype; 2 WAT
[9] = number of individuals, 100 g ae/ha, PAT/Cry1F
[10] = number of individuals, 200 g ae/ha, PAT/Cry1F
[11] = number of individuals, 400 g ae/ha, PAT/Cry1F
[12] = number of individuals, 800 g ae/ha, PAT/Cry1F
[13] = number of individuals, 1600 g ae/ha, PAT/Cry1F

In the case of `CC(Oc1ccc(Oc2ncc(C(F)(F)F)cc2Cl)cc1)C(=O)O` (stereo not drawn) [haloxyfop], the “% Injury Ave” value ([1]; 100 g ae/ha; Wildtype; 2 WAT) is reported as 0.0%, the “% Injury Range” value ([1]; 100 g ae/ha; Wildtype; 2 WAT) is reported as 0% and the “% Injury Ave” value ([1]; 200 g ae/ha; Wildtype; 2 WAT) is reported as 0.0%. For the same compound, the “% Injury Range” value ([1]; 200 g ae/ha; Wildtype; 2 WAT) was 0%, the “% Injury Ave” value ([1]; 400 g ae/ha; Wildtype; 2 WAT) was 20.0% and the “% Injury Range” value ([1]; 400 g ae/ha; Wildtype; 2 WAT) was 20%. The “% Injury Ave” value ([1]; 800 g ae/ha; Wildtype; 2 WAT) was 73.3%, the “% Injury Range” value ([1]; 800 g ae/ha; Wildtype; 2 WAT) was 70-85% and the “% Injury Ave” value ([1]; 1600 g ae/ha; Wildtype; 2 WAT) was 93.3%. For the same compound, the “% Injury Range” value ([1]; 1600 g ae/ha; Wildtype; 2 WAT) was 80-100%, the “% Injury 20-40%” value [1, 4] was 0 and the “% Injury <20%” value [1, 4] was 3. The “% Injury >40%” value [1, 4] was 0, the “% Injury 20-40%” value [1, 5] was 0 and the “% Injury <20%” value [1, 5] was 3. The “% Injury >40%” value [1, 5] was 0, the “% Injury 20-40%” value [1, 6] was 3 and the “% Injury <20%” value [1, 6] was 0. The “% Injury >40%” value [1, 6] was 0, the “% Injury 20-40%” value [1, 7] was 0 and the “% Injury <20%” value [1, 7] was 0. For the same compound, the “% Injury >40%” value [1, 7] was 3, the “% Injury 20-40%” value [1, 8] was 0 and the “% Injury <20%” value [1, 8] was 0. For the same compound, the “% Injury >40%” value [1, 8] was 3, the “% Injury Ave” value ([2]; 100 g ae/ha, PAT/Cry1F) was 0.0% and the “% Injury Range” value ([2]; 100 g ae/ha, PAT/Cry1F) was 0%. The “% Injury Ave” value ([2]; 200 g ae/ha, PAT/Cry1F) was 10.0%, the “% Injury Range” value ([2]; 200 g ae/ha, PAT/Cry1F) was 10% and the “% Injury Ave” value ([2]; 400 g ae/ha, PAT/Cry1F) was 27.5%. For the same compound, the “% Injury Range” value ([2]; 400 g ae/ha, PAT/Cry1F) was 20-30%, the “% Injury Ave” value ([2]; 800 g ae/ha, PAT/Cry1F) was 78.8% and the “% Injury Range” value ([2]; 800 g ae/ha, PAT/Cry1F) was 70-85%. For the same compound, the “% Injury Ave” value ([2]; 1600 g ae/ha, PAT/Cry1F) was 47.5%, the “% Injury Range” value ([2]; 1600 g ae/ha, PAT/Cry1F) was 80-100% and the “% Injury 20-40%” value [2, 9] was 0. The “% Injury <20%” value [2, 9] was 4, the “% Injury >40%” value [2, 9] was 0 and the “% Injury 20-40%” value [2, 10] was 0. For the same compound, the “% Injury <20%” value [2, 10] was 4, the “% Injury >40%” value [2, 10] was 0 and the “% Injury 20-40%” value [2, 11] was 4. The “% Injury <20%” value [2, 11] was 0, the “% Injury >40%” value [2, 11] was 0 and the “% Injury 20-40%” value [2, 12] was 0. For the same compound, the “% Injury <20%” value [2, 12] was 0, the “% Injury >40%” value [2, 12] was 4 and the “% Injury 20-40%” value [2, 13] was 0. For the same compound, the “% Injury <20%” value [2, 13] was 0 and the “% Injury >40%” value [2, 13] was 4.
In the case of `CC(Oc1ccc(Cl)cc1Cl)C(=O)O` (racemic) [(R,S)-dichlorprop, 2,4-dichlorophenoxypropionic acid], the “% Injury Ave” value ([1]; Wildtype; 12.5 g ae/ha; 2 WAT) is reported as 13.3%, the “% Injury Range” value ([1]; Wildtype; 12.5 g ae/ha; 2 WAT) is reported as 10-15% and the “individuals with 20-40% injury” value ([1]; Wildtype; 12.5 g ae/ha; 2 WAT) is reported as 0. The “individuals with <20% injury” value ([1]; Wildtype; 12.5 g ae/ha; 2 WAT) was 3, the “individuals with >40% injury” value ([1]; Wildtype; 12.5 g ae/ha; 2 WAT) was 0 and the “% Injury Ave” value ([1]; Wildtype; 50 g ae/ha; 2 WAT) was 53.3%. For the same compound, the “% Injury Range” value ([1]; Wildtype; 50 g ae/ha; 2 WAT) was 50-60%, the “individuals with 20-40% injury” value ([1]; Wildtype; 50 g ae/ha; 2 WAT) was 0 and the “individuals with <20% injury” value ([1]; Wildtype; 50 g ae/ha; 2 WAT) was 0. The “individuals with >40% injury” value ([1]; Wildtype; 50 g ae/ha; 2 WAT) was 3, the “% Injury Ave” value ([1]; Wildtype; 200 g ae/ha; 2 WAT) was 95.0% and the “% Injury Range” value ([1]; Wildtype; 200 g ae/ha; 2 WAT) was 90-100%. The “individuals with 20-40% injury” value ([1]; Wildtype; 200 g ae/ha; 2 WAT) was 0, the “individuals with <20% injury” value ([1]; Wildtype; 200 g ae/ha; 2 WAT) was 0 and the “individuals with >40% injury” value ([1]; Wildtype; 200 g ae/ha; 2 WAT) was 3. For the same compound, the “% Injury Ave” value ([1]; Wildtype; 800 g ae/ha; 2 WAT) was 100.0%, the “% Injury Range” value ([1]; Wildtype; 800 g ae/ha; 2 WAT) was 100% and the “individuals with 20-40% injury” value ([1]; Wildtype; 800 g ae/ha; 2 WAT) was 0. The “individuals with <20% injury” value ([1]; Wildtype; 800 g ae/ha; 2 WAT) was 0, the “individuals with >40% injury” value ([1]; Wildtype; 800 g ae/ha; 2 WAT) was 3 and the “GR99 for Arabidopsis” value ([1]; postemergence spray) was ~200 g ae/ha. For the same compound, the “% Injury Ave” value ([2]; PAT/Cry1F, 12.5 g ae/ha) was 38.1%, the “% Injury Range” value ([2]; PAT/Cry1F, 12.5 g ae/ha) was 20-95% and the “individuals with 20-40% injury” value ([2]; PAT/Cry1F, 12.5 g ae/ha) was 6. The “individuals with <20% injury” value ([2]; PAT/Cry1F, 12.5 g ae/ha) was 0, the “individuals with >40% injury” value ([2]; PAT/Cry1F, 12.5 g ae/ha) was 2 and the “% Injury Ave” value ([2]; PAT/Cry1F, 50 g ae/ha) was 80.0%. For the same compound, the “% Injury Range” value ([2]; PAT/Cry1F, 50 g ae/ha) was 50-100%, the “individuals with 20-40% injury” value ([2]; PAT/Cry1F, 50 g ae/ha) was 0 and the “individuals with <20% injury” value ([2]; PAT/Cry1F, 50 g ae/ha) was 0. For the same compound, the “individuals with >40% injury” value ([2]; PAT/Cry1F, 50 g ae/ha) was 8, the “% Injury Ave” value ([2]; PAT/Cry1F, 200 g ae/ha) was 98.3% and the “% Injury Range” value ([2]; PAT/Cry1F, 200 g ae/ha) was 95-100%. For the same compound, the “individuals with 20-40% injury” value ([2]; PAT/Cry1F, 200 g ae/ha) was 0, the “individuals with <20% injury” value ([2]; PAT/Cry1F, 200 g ae/ha) was 0 and the “individuals with >40% injury” value ([2]; PAT/Cry1F, 200 g ae/ha) was 8. The “% Injury Ave” value ([2]; PAT/Cry1F, 800 g ae/ha) was 100.0%, the “% Injury Range” value ([2]; PAT/Cry1F, 800 g ae/ha) was 100% and the “individuals with 20-40% injury” value ([2]; PAT/Cry1F, 800 g ae/ha) was 0. For the same compound, the “individuals with <20% injury” value ([2]; PAT/Cry1F, 800 g ae/ha) was 0, the “individuals with >40% injury” value ([2]; PAT/Cry1F, 800 g ae/ha) was 8 and the “wt ARBTH root 150” value ([3]; root) was 0.01 ppm. For the same compound, the “wt ARBTH shoot 150” value ([3]; shoot) was 2 ppm.
